# Test results from patent publication US20240166612A1, “ARYLTHIOETHER ACETAMIDE AND RELATED COMPOUNDS AND THEIR USE IN TREATING MEDICAL CONDITIONS” (X-Biotix Therapeutics, Inc., priority 2021, published 2024).
# How the values were obtained:
# P. aeruginosa LESB58 = experiment: Broth microdilution MIC, P. aeruginosa LESB58; format: cell-based; conditions: Pseudomonas aeruginosa; P. aeruginosa LESB58 clinical isolate, colistin-resistant, 37° C., 18 h
# Experimental: (§1) Exemplary compounds from the above Examples were tested to determine their minimum inhibitory concentration (MIC) for exemplary strains of Escherichia and Pseudomonas bacteria using broth microdilution methods. Assay procedures and results are described below.
# (§2) Broth microdilution assays were conducted according to Clinical and Laboratory Standards Institute guidelines (CLSI, M07-A^11: Clinical and Laboratory Standards Institute. Methods for Dilution Antimicrobial Susceptibility Tests for Bacteria that Grow Aerobically; Approved Standard-11th Edition. Wayne, PA: CLSI, 2018). Briefly, bacterial suspensions were adjusted to a density equivalent to a 0.5 McFarland standard and diluted in sterile, cation-adjusted Mueller-Hinton broth (Beckton Dickinson) to yield a final inoculum between 2×10^5 and 8×10^5 colony-forming units (CFU)/mL. An inoculum volume of 98 μL was added to wells containing 2 μL of 2-fold serial dilutions of drug (prepared in DMSO). All inoculated microdilution trays were incubated in ambient air at 37° C. for 18 h. […] Performance of the assay was monitored by the use of laboratory quality-control strains (S. aureus ATCC 29213 and P. aeruginosa ATCC 27853) and levofloxacin, a compound with a defined MIC spectrum, in accordance with CLSI guidelines (CLSI, M100Ed29: Clinical and Laboratory Standards Institute. Performance Standards for Antimicrobial Susceptibility Testing, 29th Edition. Wayne, PA: CLSI, 2018).
# (§3) Multiple enterobacteriaceae strains were tested, including both wild-type strains and multi-drug resistance pump deficient mutants. Specific strains tested included the following: • Wild-type P. aeruginosa PAO1, • P. aeruginosa PAO1 ΔmexABoprM—Disabled multi-drug efflux system Δ(MexAB-OprM), • P. aeruginosa PAO397—PAO1Δ(mexAB-oprM) Δ(mexCD-oprJ) Δ(mexEF-oprN) Δ(mexJK) Δ(mexXY) ΔopmH, • P. aeruginosa LESB58—Clinical isolate; colistin-resistant, isolated in the United Kingdom in 1988 from a patient with cystic fibrosis • E. coli JW0452-3 (BW25113 JacrA::kan)—Disabled multi-drug efflux system (AcrAB-TolC).
# (§4) Experimental results are provided in Table 11, which provides MIC values for wild-type P. aeruginosa PAO1 (“PAO1 WT MIC”), P. aeruginosa PAO ΔmexABoprM (“PAO1 KO MIC”), P. aeruginosa PAO397 (“PAO397 KO MIC”), P. aeruginosa LESB58 (“LESB58”), and E. coli JW0452-3 (BW25113 JacrA::kan) (“E. coli KO MIC”).
# [1] = system: Wild-type P. aeruginosa PAO1; experiment: Broth microdilution MIC, wild-type P. aeruginosa PAO1; format: cell-based; conditions: Pseudomonas aeruginosa; wild-type P. aeruginosa PAO1, 37° C., 18 h; read-out: PAO1 WT MIC
# Experimental: as §1, §2, §3, §4
# P. aeruginosa PAO397 = experiment: Broth microdilution MIC, P. aeruginosa PAO397; format: cell-based; conditions: Pseudomonas aeruginosa, PAO397, 18 h, read-out: PAO397 KO MIC
# Experimental: as §1, §2, §3, §4
# [2] = target: T1, recombinant LpxA enzyme (P. aeruginosa) (Pseudomonas aeruginosa, UniProt Q9X6P4); experiment: LpxA in vitro substrate acylation assay with RapidFire MS analysis (P. aeruginosa); format: biochemical; conditions: P. aeruginosa enzyme 0.5 nM, PaACP-C10, 30 min
# T1 sequence (Q9X6P4 1-258): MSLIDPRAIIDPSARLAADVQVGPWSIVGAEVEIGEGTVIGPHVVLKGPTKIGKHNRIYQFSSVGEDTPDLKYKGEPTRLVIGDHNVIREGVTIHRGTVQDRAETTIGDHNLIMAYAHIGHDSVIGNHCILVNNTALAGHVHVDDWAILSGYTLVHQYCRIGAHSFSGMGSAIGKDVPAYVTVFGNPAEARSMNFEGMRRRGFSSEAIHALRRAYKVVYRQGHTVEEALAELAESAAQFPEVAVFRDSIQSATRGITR
# Experimental: Exemplary compounds from the above Examples were tested for ability to inhibit LpxA activity using an in vitro substrate acylation assay with RapidFire™ MS analysis. Assay procedures and results are described below.
# Reactions were carried out in a final volume of 30 μL with 25 mM HEPES (pH 7.3), 150 mM NaCl, 2 mM DTT, 0.01% BSA, 5 μM UDP-GlcNac, recombinant LpxA enzyme (0.5 nM P. aeruginosa or 1.0 nM E. coli, both produced at Evotec), 0.5 μM acyl-transfer reagent (decanoyl P. aeruginosa acyl-carrier protein [PaACP-C10] or myristoyl E. coli acyl-carrier protein [EcACP-C1-4], both produced at Evotec), and 1% DMSO containing test compound. After 30 min incubation at room temperature, reactions were stopped by addition of 30 μL of 10% TCA in water.
# Samples were centrifuged (4350 rpm, 4° C., 5 min), and then subjected to RapidFire™ MS analysis on an Agilent RapidFire 300 coupled to an Agilent 6460 triple-quadrupole mass spectrometer. Analytes were retained on a C4 (type A) cartridge using the following solvents and flow rates: • Pump 1—H2O with 5 mM NH4OAc at 2.0 mL/min, • Pump 2—MeOH/H2O (90/10) at 1.5 mL/min, • Pump 3—MeOH/H2O (90/10) at 0.5 mL/min, and • Pump 4—ACN (organic)/H2O (aqueous). Substrate and product of the reaction were detected in negative mode ESI-MS/MS by MRM (multiple reaction monitoring) of transitions 606.0/385.0 (UDP-GlcNAc substrate) and 776.2/385.0 (UDP-3-O—(R-3-hydroxydecanoyl)-GlcNAc product, for P. aeruginosa LpxA assay) or 832.2/385.0 (UDP-3-O—(R-3-hydroxymyristoyl)-GlcNAc product, for E. coli LpxA assay).
# For IC50 determinations, peak areas of the substrate and product were compared to compute the proportion of product formed by the LpxA enzyme at each compound concentration.
SMILES,MIC (P. aeruginosa LESB58),MIC [1],MIC (P. aeruginosa PAO397),IC50 [2]
N#Cc1ccc(CN(Cc2nnc(N)o2)C(=O)COc2cc(F)cc(F)c2C2CC2)cn1 [compound 85],16 to 64 µg/mL,> 64 µg/mL,–,–
N#Cc1ccc(CN(CC(=O)NC2CCNCC2)C(=O)CSc2ccccc2Cl)cc1 [compound 4],–,> 64 µg/mL,16 to 64 µg/mL,–
CC(C)c1ccccc1OCC(=O)N(Cc1ccc(C#N)cc1)Cc1nnc(N)o1 [compound 53],–,> 64 µg/mL,1 to 16 µg/mL,–
"N#Cc1ccc(CN(CC(=O)NC2COC2)C(=O)CSc2ccccc2Cl)cc1 [Compound No. 1, 2-[[2-(2-Chlorophenyl)sulfanylacetyl]-[(4-cyanophenyl)methyl]amino]-N-(oxetan-3-yl)acetamide]",–,–,1 to 16 µg/mL,–
CCc1ccccc1SCC(=O)N(CC(=O)NC)Cc1ccc(-n2cncn2)cc1 [compound 90],–,> 64 µg/mL,–,100 to 1000 nM
CCc1c(F)cc(F)cc1O[C@@H](C)C(=O)N(Cc1nnc(N)o1)Cc1ccc(C#N)cc1F [compound 101],> 64 µg/mL,> 64 µg/mL,–,–
[2H]C([2H])(Oc1cc(F)cc(F)c1C([2H])([2H])C([2H])([2H])[2H])C(=O)N(Cc1ccc(C#N)nc1)Cc1nnc(N)o1 [compound 82],16 to 64 µg/mL,> 64 µg/mL,–,–
C[C@H](Sc1cc(F)cc(F)c1Cl)C(=O)N(Cc1nnc(N)o1)Cc1ccc(C#N)cc1F [compound 103],> 64 µg/mL,> 64 µg/mL,–,–
N#Cc1ccc(CN(C(=O)CSc2ccccc2Cl)C2(c3nnc(N)o3)CC2)cc1 [compound 22],–,> 64 µg/mL,1 to 16 µg/mL,–
"[2H]C([2H])(Oc1cc(F)cc(F)c1C([2H])([2H])C([2H])([2H])[2H])C(=O)N(Cc1nnc(N)o1)Cc1ccc(C#N)cc1F [compound 77, N-[(5-amino-1,3,4-oxadiazol-2-yl)methyl]-N-[(4-cyano-2-fluoro-phenyl)methyl]-2,2-dideuterio-2-[3,5-difluoro-2-(1,1,2,2,2-pentadeuterioethyl)phenoxy]acetamide]",1 to 16 µg/mL,1 to 16 µg/mL,–,–
N#Cc1ccc(CN(Cc2nnc(N)o2)C(=O)COc2ccc(F)cc2Cl)c(F)c1 [compound 121],> 64 µg/mL,> 64 µg/mL,–,–
CNC(=O)CN(Cc1ccc(-n2cncn2)cc1)C(=O)CSc1ccccc1Cl [compound 91],–,> 64 µg/mL,–,–
"CCc1c(F)cc(F)cc1OC(C)C(=O)N(Cc1nnc(N)o1)Cc1ccc(C#N)cc1F (single isomer, unassigned) [Compound No. 100]",1 to 16 µg/mL,1 to 16 µg/mL,–,–
[2H]C([2H])C([2H])([2H])c1ccccc1OCC(=O)N(Cc1nnc(N)o1)Cc1ccc(C#N)cc1F [compound 113],16 to 64 µg/mL,> 64 µg/mL,–,–
N#Cc1ccc(CN(Cc2nnc(N)o2)C(=O)CSc2ccccc2CC(F)(F)F)c(F)c1 [compound 118],> 64 µg/mL,> 64 µg/mL,–,–
[2H]CC([2H])c1c(F)cc(F)cc1OCC(=O)N(Cc1nnc(N)o1)Cc1ccc(C#N)cc1F (stereo not shown) [compound 112],1 to 16 µg/mL,1 to 16 µg/mL,–,–
Nc1nnc(CN(Cc2ccc(S(N)(=O)=O)cc2F)C(=O)COc2cc(F)cc(F)c2C2CC2)o1 [compound 80],1 to 16 µg/mL,16 to 64 µg/mL,–,–
C[C@@H](Sc1cc(F)cc(F)c1Cl)C(=O)N(Cc1nnc(N)o1)Cc1ccc(C#N)cc1F [compound 98],> 64 µg/mL,> 64 µg/mL,–,–
"[2H]C([2H])(Oc1cc(F)cc(F)c1C([2H])([2H])C([2H])([2H])[2H])C(=O)N(Cc1nnc(N)o1)Cc1ccc(S(N)(=O)=O)cc1F [compound 111, N-[(5-Amino-1,3,4-oxadiazol-2-yl)methyl]-2,2-dideuterio-2-[3,5-difluoro-2-(1,1,2,2,2-pentadeuterioethyl)phenoxy]-N-[(2-fluoro-4-sulfamoyl-phenyl)methyl]acetamide]",1 to 16 µg/mL,16 to 64 µg/mL,–,–
N#Cc1ccc(CN(Cc2nnc(N)o2)C(=O)/C=C/c2ccccc2Cl)c(F)c1 [compound 99],> 64 µg/mL,> 64 µg/mL,–,–
N#Cc1ccc(CN(Cc2nnc(N)o2)C(=O)COc2ccccc2Cl)cn1 [compound 17],–,> 64 µg/mL,1 to 16 µg/mL,–
N#Cc1ccc(CN(Cc2nnc(N)o2)C(=O)CSc2cc(CN)ccc2Cl)cn1 [compound 115],–,> 64 µg/mL,–,–
C[C@H](Oc1ccccc1Cl)C(=O)N(Cc1ccc(C#N)cc1)Cc1nnc(N)o1 [compound 117],–,–,–,> 1000 nM
Cc1ncc(CN(Cc2ccc(C#N)cc2)C(=O)CSc2ccccc2Cl)[nH]1 [compound 75],–,> 64 µg/mL,1 to 16 µg/mL,–
"CCc1c(F)cc(F)cc1OCC(=O)N(Cc1nnc(N)o1)Cc1ccc(S(N)(=O)=O)cc1F [compound 79, N-[(5-Amino-1,3,4-oxadiazol-2-yl)methyl]-2-(2-ethyl-3,5-difluoro-phenoxy)-N-[(2-fluoro-4-sulfamoyl-phenyl)methyl]acetamide]",1 to 16 µg/mL,1 to 16 µg/mL,–,–
N#Cc1ccc(CN(Cc2nnc(N)o2)C(=O)COc2cc(F)cc(F)c2C2CC2)c(F)c1 [compound 81],1 to 16 µg/mL,16 to 64 µg/mL,–,–
NCCOc1ccc(Cl)c(SCC(=O)N(Cc2ccc(C(N)=O)c(C(=O)O)c2)Cc2nnc(N)o2)c1 [compound 119],–,–,–,> 1000 nM
N#Cc1ccc(CN(Cc2ccc3cn[nH]c3c2)C(=O)CSc2ccccc2Cl)cc1 [compound 71],–,> 64 µg/mL,–,> 1000 nM
Nc1nnc(CN(Cc2ccc(S(N)(=O)=O)cc2)C(=O)COc2cc(F)cc(F)c2Cl)o1 [compound 120],16 to 64 µg/mL,> 64 µg/mL,–,–
[2H]C([2H])(Oc1ccccc1C([2H])([2H])C([2H])([2H])[2H])C(=O)N(Cc1nnc(N)o1)Cc1ccc(C#N)cc1F [compound 114],16 to 64 µg/mL,> 64 µg/mL,–,–
